Numbered stars: 1 amine (or outer) side, 2 acyl side, 3 side chain; on linkers, the order of the positions; unused ones are H or OH. Peptide text beside a SMILES is read from it. * marks the point of attachment. C20 diacid = O=C(O)CCCCCCCCCCCCCCCCCCC(=O)*; C18 diacid = O=C(O)CCCCCCCCCCCCCCCCC(=O)*; γGlu = O=C(O)[C@H](CCC(=O)[*:2])N[*:1]
What was measured:
[1] = Solubility in 100 mM glycylglycine buffer at pH 3.0 incubated for 18 hrs by UPLC analysis; type: physicochemical
[2] = Solubility in 100 mM bistrispropane buffer at pH 6.5 incubated for 18 hrs by UPLC analysis; type: physicochemical
[3] = Solubility in 100 mM bistrispropane buffer at pH 8.0 incubated for 18 hrs by UPLC analysis; type: physicochemical
[4] = Solubility in 100 mM bistrispropane buffer at pH 6.0 incubated for 18 hrs by UPLC analysis; type: physicochemical
Calcitonin receptor [5] = biological target: T1, Calcitonin receptor (Homo sapiens, UniProt P30988); test: Agonist activity at human calcitonin receptor expressed in BHK570 cells assessed as increase in intracellular cAMP concentration incubated for 3 hrs in absence of albumin by CRE luciferase reporter gene assay; type: functional, cell-based
T1 sequence (P30988 whole entry): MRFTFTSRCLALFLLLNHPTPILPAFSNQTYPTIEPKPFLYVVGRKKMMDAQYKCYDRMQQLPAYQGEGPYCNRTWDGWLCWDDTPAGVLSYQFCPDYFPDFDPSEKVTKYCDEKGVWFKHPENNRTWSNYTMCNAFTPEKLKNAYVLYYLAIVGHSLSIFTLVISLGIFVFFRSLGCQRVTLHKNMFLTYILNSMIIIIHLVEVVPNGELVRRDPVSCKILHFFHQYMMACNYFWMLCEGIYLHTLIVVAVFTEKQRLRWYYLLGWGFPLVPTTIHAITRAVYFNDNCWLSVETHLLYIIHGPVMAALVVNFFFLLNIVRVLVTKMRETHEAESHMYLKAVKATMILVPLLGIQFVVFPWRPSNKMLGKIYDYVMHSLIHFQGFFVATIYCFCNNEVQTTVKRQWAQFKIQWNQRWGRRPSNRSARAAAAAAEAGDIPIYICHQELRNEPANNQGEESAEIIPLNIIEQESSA

[6] = Solubility in 100 mM glycylglycine buffer at pH 4.0 incubated for 18 hrs by UPLC analysis; type: physicochemical
[7] = Solubility in 100 mM glycylglycine buffer at pH 5.0 incubated for 18 hrs by UPLC analysis; type: physicochemical
[8] = biological target: T2, Amylin receptor AMY3; CALCR/RAMP3 (Homo sapiens, UniProt O60896+P30988); test: Agonist activity at human amylin receptor expressed in BHK570 cells co-expressing RAMP3 assessed as increase in intracellular cAMP concentration incubated for 3 hrs in absence of albumin by CRE luciferase reporter gene assay; type: functional, cell-based
T2 sequence (P30988 whole entry): T1 sequence (P30988 whole entry)
T2 sequence (O60896 whole entry): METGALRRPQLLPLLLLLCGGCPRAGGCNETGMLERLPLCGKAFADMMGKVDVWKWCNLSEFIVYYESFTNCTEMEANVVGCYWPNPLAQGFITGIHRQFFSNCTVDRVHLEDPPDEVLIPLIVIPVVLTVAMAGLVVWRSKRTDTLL

Calcitonin receptor [9] = biological target: T1, Calcitonin receptor; test: Agonist activity at human calcitonin receptor expressed in BHK570 cells assessed as increase in intracellular cAMP concentration incubated for 3 hrs in presence of 10% FBS by CRE luciferase reporter gene assay; type: functional, cell-based
[10] = biological target: T2, Amylin receptor AMY3; CALCR/RAMP3; test: Agonist activity at human amylin receptor expressed in BHK570 cells co-expressing RAMP3 assessed as increase in intracellular cAMP concentration incubated for 3 hrs in presence of 10% FBS by CRE luciferase reporter gene assay; type: functional, cell-based
[11] = biological target: T2, Amylin receptor AMY3; CALCR/RAMP3; test: Displacement of [125I]-labeled rat amylin from human amylin receptor expressed in BHK tkts13 whole cells co-expressing RAMP3 incubated for 60 mins by scintillation proximity assay; type: cell-based
[12] = Solubility in 100 mM bistrispropane buffer at pH 7.5 incubated for 18 hrs by UPLC analysis; type: physicochemical
[13] = Solubility in 100 mM bistrispropane buffer at pH 7.0 incubated for 18 hrs by UPLC analysis; type: physicochemical

Compound | solubility at 18 h [1] [µM] | solubility at 18 h [2] [µM] | solubility at 18 h [3] [µM] | solubility at 18 h [4] [µM] | EC50 (Calcitonin receptor [5]) [nM] | solubility at 18 h [6] [µM] | solubility at 18 h [7] [µM] | EC50 [8] [nM] | EC50 (Calcitonin receptor [9]) [nM] | EC50 [10] [nM] | IC50 [11] [nM] | solubility at 18 h [12] [µM] | solubility at 18 h [13] [µM]
CC(C)C[C@H](NC(=O)CNC(=O)[C@H](CO)NC(=O)[C@H](C)NC(=O)CC[C@H](NC(=O)CCCCCCCCCCCCCCCCCCC(=O)O)C(=O)O)C(=O)N[C@@H](CO)C(=O)N[C@H](C(=O)N[C@@H](C)C(=O)N[C@H](C(=O)N[C@@H](CC(C)C)C(=O)NCC(=O)N[C@@H](CCCNC(=N)N)C(=O)N[C@@H](CC(C)C)C(=O)N[C@@H](CO)C(=O)N[C@@H](CCC(N)=O)C(=O)N[C@@H](CCC(=O)O)C(=O)N[C@@H](CC(C)C)C(=O)N[C@@H](Cc1cnc[nH]1)C(=O)N[C@@H](CCC(=O)O)C(=O)N[C@@H](CC(C)C)C(=O)N[C@@H](CCC(N)=O)C(=O)N[C@H](C(=O)N[C@@H](Cc1ccc(O)cc1)C(=O)N1CCC[C@H]1C(=O)N[C@@H](CCCNC(=N)N)C(=O)N[C@H](C(=O)N[C@@H](CCC(=O)O)C(=O)N[C@H](C(=O)NCC(=O)N[C@@H](CO)C(=O)NCC(=O)N[C@H](C(=O)N[C@@H](Cc1ccc(O)cc1)C(N)=O)[C@@H](C)O)[C@@H](C)O)[C@@H](C)O)[C@@H](C)O)[C@@H](C)O)[C@@H](C)O ({C20 diacid-γGlu}-ASGLSTATLGRLSQELHELQTYPRTETGSGTY-NH2) | ≥ 200 | ≥ 200 | ≥ 200 | ≥ 200 | 0.034 | ≥ 200 |  | 0.04 | 0.092 | 0.122 | 0.079 | ≥ 200 | ≥ 200
CC(C)C[C@H](NC(=O)CNC(=O)[C@H](CO)NC(=O)[C@H](C)NC(=O)CC[C@H](NC(=O)CCCCCCCCCCCCCCCCCCC(=O)O)C(=O)O)C(=O)N[C@@H](CO)C(=O)N[C@H](C(=O)N[C@@H](C)C(=O)N[C@H](C(=O)N[C@@H](CC(C)C)C(=O)NCC(=O)N[C@@H](CCCNC(=N)N)C(=O)N[C@@H](CC(C)C)C(=O)N[C@@H](CO)C(=O)N[C@@H](CCC(N)=O)C(=O)N[C@@H](CCC(=O)O)C(=O)N[C@@H](CC(C)C)C(=O)N[C@@H](Cc1cnc[nH]1)C(=O)N[C@@H](CCC(=O)O)C(=O)N[C@@H](CC(C)C)C(=O)N[C@@H](CCC(N)=O)C(=O)N[C@H](C(=O)N[C@@H](Cc1ccc(O)cc1)C(=O)N1CCC[C@H]1C(=O)N[C@@H](CCCNC(=N)N)C(=O)N[C@H](C(=O)N[C@@H](CCC(=O)O)C(=O)N[C@H](C(=O)NCC(=O)N[C@@H](CO)C(=O)N[C@@H](C)C(=O)N[C@H](C(=O)N[C@@H](Cc1ccc(O)cc1)C(N)=O)[C@@H](C)O)[C@@H](C)O)[C@@H](C)O)[C@@H](C)O)C(C)C)[C@@H](C)O ({C20 diacid-γGlu}-ASGLSTAVLGRLSQELHELQTYPRTETGSATY-NH2) | ≥ 200 | ≥ 200 | ≥ 200 | ≥ 200 | 0.052 | ≥ 200 |  |  | 0.037 | 0.077 | 0.244 | ≥ 200 | ≥ 200
CC(C)C[C@H](NC(=O)CC[C@H](NC(=O)CCCCCCCCCCCCCCCCCCC(=O)O)C(=O)O)C(=O)N[C@@H](CO)C(=O)NCC(=O)N[C@@H](CC(C)C)C(=O)N[C@@H](CO)C(=O)N[C@H](C(=O)N[C@@H](C)C(=O)N[C@H](C(=O)N[C@@H](CC(C)C)C(=O)NCC(=O)N[C@@H](CCCNC(=N)N)C(=O)N[C@@H](CC(C)C)C(=O)N[C@@H](CO)C(=O)N[C@@H](C)C(=O)N[C@@H](CCC(=O)O)C(=O)N[C@@H](CC(C)C)C(=O)N[C@@H](Cc1cnc[nH]1)C(=O)N[C@@H](CCC(=O)O)C(=O)N[C@@H](CC(C)C)C(=O)N[C@@H](CO)C(=O)N[C@H](C(=O)N[C@@H](Cc1ccc(O)cc1)C(=O)N1CCC[C@H]1C(=O)N[C@@H](CCCNC(=N)N)C(=O)N[C@H](C(=O)N[C@@H](CCC(=O)O)C(=O)N[C@H](C(=O)NCC(=O)N[C@@H](CO)C(=O)NCC(=O)N[C@H](C(=O)N[C@@H](Cc1ccc(O)cc1)C(N)=O)[C@@H](C)O)[C@@H](C)O)[C@@H](C)O)[C@@H](C)O)C(C)C)[C@@H](C)O ({C20 diacid-γGlu}-LSGLSTAVLGRLSAELHELSTYPRTETGSGTY-NH2) | ≥ 200 | ≥ 200 | ≥ 200 | ≥ 200 | 0.028 | ≥ 200 |  | 0.024 | 0.034 | 0.064 | 11.8 | ≥ 200 | ≥ 200

These reach a lower EC50 (Calcitonin receptor [5]). Values come first.

solubility at 18 h [1] [µM] | solubility at 18 h [2] [µM] | solubility at 18 h [3] [µM] | solubility at 18 h [4] [µM] | EC50 (Calcitonin receptor [5]) [nM] | solubility at 18 h [6] [µM] | solubility at 18 h [7] [µM] | EC50 [8] [nM] | EC50 (Calcitonin receptor [9]) [nM] | EC50 [10] [nM] | IC50 [11] [nM] | solubility at 18 h [12] [µM] | solubility at 18 h [13] [µM] | Compound
≥ 200 | ≥ 200 | ≥ 200 | ≥ 200 | 0.014 | ≥ 200 | ≥ 200 | 0.01 | 0.011 | 0.017 | 0.764 | ≥ 200 | ≥ 200 | CC(C)C[C@H](NC(=O)[C@H](CCC(=O)O)NC(=O)[C@H](Cc1cnc[nH]1)NC(=O)[C@H](CC(C)C)NC(=O)[C@H](CCC(=O)O)NC(=O)[C@H](C)NC(=O)[C@H](CO)NC(=O)[C@H](CC(C)C)NC(=O)[C@H](CCCNC(=N)N)NC(=O)CNC(=O)[C@H](CC(C)C)NC(=O)[C@@H](NC(=O)[C@H](C)NC(=O)[C@@H](NC(=O)[C@H](CO)NC(=O)[C@H](CC(C)C)NC(=O)[C@H](CCC(=O)O)NC(=O)[C@H](CO)NC(=O)[C@H](C)NC(=O)CC[C@H](NC(=O)CCCCCCCCCCCCCCCCC(=O)O)C(=O)O)[C@@H](C)O)C(C)C)C(=O)N[C@@H](C)C(=O)N[C@H](C(=O)N[C@@H](CC(C)C)C(=O)N1CCC[C@H]1C(=O)N[C@@H](CCCNC(=N)N)C(=O)N[C@H](C(=O)N[C@@H](CCC(=O)O)C(=O)N[C@H](C(=O)NCC(=O)N[C@@H](CO)C(=O)NCC(=O)N[C@@H](CO)C(=O)N1CCC[C@H]1C(N)=O)[C@@H](C)O)[C@@H](C)O)[C@@H](C)O ({C18 diacid-γGlu}-ASELSTAVLGRLSAELHELATLPRTETGSGSP-NH2)
 |  |  |  | 0.012 |  |  | 0.01 | 0.05 | 0.044 | 10.7 |  |  | CC(C)C[C@H](NC(=O)CC[C@H](NC(=O)CCCCCCCCCCCCCCCCCCC(=O)O)C(=O)O)C(=O)N[C@@H](CO)C(=O)N[C@@H](CCC(N)=O)C(=O)N[C@@H](CC(C)C)C(=O)N[C@@H](CO)C(=O)N[C@H](C(=O)N[C@@H](CC(C)C)C(=O)N[C@H](C(=O)N[C@@H](CC(C)C)C(=O)NCC(=O)N[C@@H](CCCNC(=N)N)C(=O)N[C@@H](CC(C)C)C(=O)N[C@@H](CO)C(=O)N[C@@H](CCC(N)=O)C(=O)N[C@@H](CCCNC(=N)N)C(=O)N[C@@H](CC(C)C)C(=O)N[C@@H](Cc1cnc[nH]1)C(=O)N[C@@H](CCCNC(=N)N)C(=O)N[C@@H](CC(C)C)C(=O)N[C@@H](CCC(N)=O)C(=O)N[C@H](C(=O)N[C@@H](Cc1ccc(O)cc1)C(=O)N1CCC[C@H]1C(=O)N[C@@H](CCCNC(=N)N)C(=O)N[C@H](C(=O)N[C@@H](CCC(N)=O)C(=O)N[C@H](C(=O)NCC(=O)N[C@@H](CO)C(=O)N[C@@H](CCC(N)=O)C(=O)N[C@H](C(=O)N[C@@H](Cc1ccc(O)cc1)C(N)=O)[C@@H](C)O)[C@@H](C)O)[C@@H](C)O)[C@@H](C)O)C(C)C)[C@@H](C)O ({C20 diacid-γGlu}-LSQLSTLVLGRLSQRLHRLQTYPRTQTGSQTY-NH2)
